Test results taken from patent publication US12358901B2, “KV3 modulators” (priority 2018, dated 2025).

Legend:
[1] = Determination of brain tissue binding (equilibrium dialysis); type: in vitro ADME; settings: Sprague Dawley, rat whole brain homogenate, 5 h at 37° C.
Procedure: Sprague Dawley rat whole blood, collected on the week of the experiment using K3-EDTA as an anti-coagulant, is diluted with isotonic phosphate buffer 1:1 (v/v). Sprague Dawley rat whole brain, stored frozen at −20° C., is thawed and homogenised in artificial cerebrospinal fluid (CSF) 1:2 (w/v).
An appropriate amount of test compound is dissolved in DMSO to give a 10 millimolar solution. Further dilutions, to obtain a 166.7 micromolar working solution are then prepared using 50% acetonitrile in MilliQ water. This working solution is used to spike the blood to obtain a final concentration of 0.5 micromolar in whole blood. Similarly, the working solution is used to spike brain samples to obtain a final concentration of 5 micromolar in whole brain. From these spiked blood and brain preparations, control samples (n=3), are immediately extracted and used to calculate the initial recovery of the test items.
150 microL of compound-free buffer (isotonic phosphate buffer for blood or artificial CSF buffer for brain) is dispensed in one half-well and 150 microL of spiked matrix (blood or brain) is loaded in the other half-well, with the two halves separated by a semi-permeable membrane. After an equilibration period of 5 h at 37° C., 50 microL of dialysed matrix (blood or brain) is added to 50 microL of corresponding compound-free buffer, and vice-versa for buffer, such that the volume of buffer to matrix (blood or brain) remains the same. Samples are then extracted by protein precipitation with 300 microL of acetonitrile containing rolipram (control for positive ionization mode) or diclofenac (control for negative ionization mode) as internal standards and centrifuged for 10 min at 3000 rpm. Supernatants are collected (100 microL), diluted with 27% AcN in MilliQ water (200 microL) and then injected into an HPLC-MS/MS or UPLC-MS/MS system to determine the concentration of test compound present.
Blood and brain tissue binding are then determined using the following formulas: Afu=Buffer/Blood or Afu=CSF/Brain
Where Afu=apparent fraction unbound; Buffer=analyte/internal standard ratio determined in the buffer compartment; Blood=analyte/internal standard ratio determined in the blood compartment; Brain=analyte/internal standard ratio determined in the brain compartment.
[formula] where: fucr=Fraction unbound corrected; D=matrix dilution factor (D=2 for blood and D=3 for brain).
Then: % Binding=(1−fucr)×100 % Unbound=100−% Bound Brain/Blood Partition Ratio (Kbb) Determination

[2] = target: human Kv3.1 channels (hKv3.1) (Homo sapiens, UniProt P48547); assay: cell-based; type: cell-based; settings: for Kv3.1 pEC50: HEK-hKv3.1 cells, -15 mV voltage step, normalised to 50 microM reference compound; for Kv3.1 max R %: maximum response relative to reference compound (50 microM)
From the text: The ability of the compounds of the invention to modulate the voltage-gated potassium channel subtypes Kv3.3/Kv3.2/Kv3.1 may be determined using the following assay. Analogous methods may be used to investigate the ability of the compounds of the invention to modulate other channel subtypes.
To assess compound effects on human Kv3.1 channels (hKv3.1):
Human embryonic kidney (HEK)-hKv3.1 cell line is generated by transfecting HEK-293 cells with an expression vector with human Kv3.1 (NM_004976.4). Cells are cultured with MEM supplemented with 10% Heat-Inactivated FBS, 2 mM L-glutamine, 1% Penicillin-Streptomycin, and 0.6 mg/ml of Geneticin (G418). HEK-hKv3.1b cells were amplified in T175 cm2 flask at 37° C. with 5% CO2, using MEM amplification medium, containing the G418 selection antibiotic (0.6 mg/ml). Cells were detached every 3-4 days, using DPBS to wash twice the flask, then TrypLE to dislodge the cells, and re-plated at a density of 2-4×10^6 cells/flask.
The day of the experiment, cells are removed from the incubator and the culture medium removed. Cells are washed with 5 ml of Dulbecco's PBS (DPBS) calcium and magnesium free and detached by the addition of 3 ml Versene (Invitrogen, Italy) followed by a brief incubation at 37° C. for 5 minutes. The flask is tapped to dislodge cells and 10 ml of DPBS containing calcium and magnesium is added to prepare a cell suspension. The cell suspension is then placed into a 15 ml centrifuge tube and centrifuged for 2 min at 1200 rpm. After centrifugation, the supernatant is removed and the cell pellet re-suspended in 4 ml of DPBS containing calcium and magnesium using a 5 ml pipette to break up the pellet. Cell suspension volume is then corrected to give a cell concentration for the assay of approximately 3 million cells per ml.
Experiments are conducted at r.t. using IonWorks Quattro™ planar array electrophysiology technology (Molecular Devices Corp.) with PatchPlate™ PPC. Stimulation protocols and data acquisition are carried out using a microcomputer (Dell Pentium 4). Planar electrode hole resistances (Rp) are determined by applying a 10 mV voltage step across each well. These measurements are performed before cell addition. After cell addition and seal formation, a seal test is performed by applying a voltage step from −80 mV to −70 mV for 160 ms. Following this, amphotericin-B solution is added to the intracellular face of the electrode to achieve intracellular access. Cells are held at −70 mV. Leak subtraction is conducted in all experiments by applying 50 ms hyperpolarizing (10 mV) prepulses to evoke leak currents followed by a 20 ms period at the holding potential before test pulses.
For hKv3.2 and hKv3.1, assays from the holding potential of −70 mV, a first test pulse at −15 mV was applied for 100 ms and after 100 ms at −70 mV a second pulse at +40 mV was applied for 50 ms. Cells were then maintained for 100 ms at −100 mV and another pulse from −70 mV to +40 mV (duration 50 ms) was applied to clamp later the voltage at −40 mV during 200 ms
The intracellular solution contains the following (in mM): K-gluconate 100, KCl 54, MgCl2 3.2, HEPES 5, adjusted to pH 7.3 with KOH. Amphotericin-B solution is prepared as 50 mg/ml stock solution in DMSO and diluted to a final working concentration of 0.1 mg/ml in intracellular solution. The external solution is Dulbecco's Phosphate Buffered Saline (DPBS) and contained the following (in mM): CaCl2 0.90, KCl 2.67, KH2PO4 1.47, MgCl·6H2O 0.493, NaCl 136.9, Na3PO4 8.06, with a pH of 7.4.
Compounds of use in the invention (or reference compounds such as N-cyclohexyl-N-[(7,8-dimethyl-2-oxo-1,2-dihydro-3-quinolinyl)methyl]-N-phenylurea) are dissolved in dimethylsulfoxide (DMSO) at a stock concentration of 10 mM. These solutions are further diluted with DMSO using a Biomek FX (Beckman Coulter) in a 384 compound plate. Each dilution (1 μL) is transferred to another compound plate and external solution containing 0.05% pluronic acid (66 μL) is added. […]

[3] = system: Salmonella typhimurium (TA1535, TA1537, TA98 and TA100) and Escherichia coli WP2 uvrA (pKM101); assay: Ames testing (bacterial mutagenicity, with and without S9-mix); settings: absence and presence of S9-mix; for Ames Result (compound): 5 to 5000 ug/plate; for Ames Result (associated aniline): aniline associated with the compound

SMILES	fraction unbound at 5 h, 5 micromolar [1]	EC50 [2] [µM]	pEC50 and maxR in the Kv3.1 assay (in words) [2]	Kv3.1 pEC50 [2]	Kv3.1 max R % [2] [%]	Ames Result (compound) [3]	Ames Result (associated aniline) [3]
Cc1ccc(Oc2cnc(N3C(=O)NC(C)(C)C3=O)cn2)c2c1OCC21CC1 [Example 1, 5,5-dimethyl-3-[5-(7-methylspiro[2H-benzofuran-3,1′-cyclopropane]-4-yl)oxypyrazin-2-yl]imidazolidine-2,4-dione]	0.043	2.75	high pEC50 and high maxR	5.47	164	Non- mutagenic	–
Cc1ccc(Oc2cnc(N)cn2)c2c1OCC21CC1 [aniline for Examples 1 and 9]	–	–	–	–	–	–	Non-mutagenic
Cc1ccc(Oc2ccc(N)cn2)c2c1OCC21CC1 [aniline associated with RE6/RE11]	–	–	–	–	–	–	Mutagenic for TA1535 in the presence of metabolic activation at 150 ug/plate
Cc1ccc(Oc2ccc(N3C(=O)NC(C)(C)C3=O)cn2)c2c1OCC21CC1 [RE6, reference compound]	0.028	–	–	5.58	144	Non- mutagenic	–
